# Data published in the supplement of paper PMC10307832.
# How the values were obtained:
# Assay in all cases: relative viability (nuclei count vs DMSO), 5 days (fraction); higher = more cells survive
# [1] = compound: C1=CC(=CC=C1C2=CC(=C(S2)NC(=O)N)C(=O)N)F [TPCA-1] + Cc1nc(Nc2ncc(C(=O)Nc3c(C)cccc3Cl)s2)cc(N2CCN(CCO)CC2)n1 [Dasatinib] (partner 0.075 µM)
# In short: (§1)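 A single step with final 0.05% Triton X-100, 1% formaldehyde and 1 ug/ml Hoechst fixed the cells and stained nuclei 5 days after treatment. Lung cancer cell lines in 1536-well plates had been treated by pin tool the day after seeding with one drug alone or a fixed anchor-drug dose plus five library-drug doses (not always all listed) in √10 steps, and nuclei were counted on 4× images. Relative viability is the ratio of nuclei in treated wells to nuclei in vehicle wells, taken as the median of duplicate plates.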
# [2] = compound: C1=CC(=CC=C1C2=CC(=C(S2)NC(=O)N)C(=O)N)F [TPCA-1] + CCNC(=O)c1noc(-c2cc(C(C)C)c(O)cc2O)c1-c1ccc(CN2CCOCC2)cc1 [Luminespib] (partner 0.01 µM)
# In short: as §1
# [3] = compound: C[C@]12O[C@H](C[C@]1(O)CO)n1c3ccccc3c3c4c(c5c6ccccc6n2c5c31)CNC4=O [Lestaurtinib] + O=C(CCCCCCC(=O)Nc1ccccc1)NO [Vorinostat] (partner 1 µM)
# In short: as §1
# [4] = compound: C1=CC(=CC=C1C2=CC(=C(S2)NC(=O)N)C(=O)N)F [TPCA-1] + Cc1cc(Nc2cc(N3CCN(C)CC3)nc(Sc3ccc(NC(=O)C4CC4)cc3)n2)n[nH]1 [Tozasertib] (partner 0.1 µM)
# In short: as §1
cell line,measurement,setting,value
UMC-11,relative viability,[1]; first compound 0.04 µM,0.494
same,relative viability,[1]; first compound 0.1265 µM,0.443
same,relative viability,[1]; first compound 0.4 µM,0.494
same,relative viability,[1]; first compound 1.265 µM,0.457
same,relative viability,[1]; first compound 4 µM,0.222
same,relative viability,[2]; first compound 0.04 µM,1.18
same,relative viability,[2]; first compound 0.1265 µM,0.914
same,relative viability,[2]; first compound 0.4 µM,1.09
same,relative viability,[2]; first compound 1.265 µM,0.957
same,relative viability,[2]; first compound 4 µM,0.684
same,relative viability,[3]; first compound 0.005 µM,0.367
same,relative viability,[3]; first compound 0.01581 µM,0.36
same,relative viability,[3]; first compound 0.05 µM,0.323
same,relative viability,[3]; first compound 0.1581 µM,0.182
same,relative viability,[3]; first compound 0.5 µM,0.118
same,relative viability,[4]; first compound 0.04 µM,0.208
same,relative viability,[4]; first compound 0.1265 µM,0.207
same,relative viability,[4]; first compound 0.4 µM,0.216
same,relative viability,[4]; first compound 1.265 µM,0.178
same,relative viability,[4]; first compound 4 µM,0.187
